Assay results as given in patent US6444694B1, “Styryl benzimidazole derivatives” (Wyeth, priority 1995, dated 2002).
Structures can show the parent of a compound that is named as a salt. Where two headings read alike, the source gives them in different places.

Experiments:
[1] = system: isolated porcine aortic smooth muscle cells; experiment: Porcine aortic smooth muscle cell antiproliferation (3H thymidine incorporation); format: cell-based; settings: 24-36 hours
Protocol: The ability of the compounds of the present invention to inhibit smooth muscle cell proliferation was established using isolated porcine aortic smooth muscle cells in a modification of the procedure of Castellot et al. J. Biol. Chem 257(19) 11256 (1982), as follows:
Fresh porcine aortas, scrupulously cleansed of fatty tissue, are rinsed in sterile phosphate-buffered saline with 2% antibiotic-antimycotic (100×) liquid (10,000 units of penicillin (base), 10,000 μg of streptomycin (base), and 25 μg of amphotericin B/mL utilizing penicillin G (sodium salt), streptomycin sulfate, and amphotericin B as Fungizone® in 0.85% saline, available from Gibco Laboratories, Grand Island Biological Co., Grand Island, N.Y.). The tissue is then digested in 10-15 mL of an enzyme solution containing collagenase type I, 165 U/mL; elastase type III, 15 U/mL; BSA, 2 mg/mL; and soybean trypsin inhibitor, 0.375 mg/mL, followed by incubation at 37° C. under 5% CO2 atmosphere for 10 to 15 minutes. After this treatment, the outer surface adventitia is removed by peeling with a forceps. The aorta is then longitudinally cut and laid open and the endothelial layer is removed by scraping.
The medial layer of cells is rinsed in the enzyme solution, and placed in a new 100 mm dish with 10 mL of enzyme solution. The medial layer of cells is minced using a fine pair of scissors and digested for 2-3 hours at 37° C. in 30 mL of fresh enzyme solution. After digestion, the medial tissue is homogenized using a sterile Pasteur pipette with a fire polished tip or an Eppendorf pipetter with a 200-1000 μL sterile pipette tip. The suspension is then centrifuged for 10 minutes at 8000 rpm and the pellet is suspended in 4-6 mL of fresh enzyme solution and plated onto 4-6 100 mm flasks with vented caps. The cells are then allowed to grow to confluence and split using 0.25% trypsin. The cells are evaluated for purity and overall quality using antibody to SMC actin.
The cells are assayed in early passage (generally passage 3-7) at sub-confluent conditions. Cultures are grown in 16 mm (24 well) multi-well culture dishes in media 199 supplemented with 10% fetal bovine serum and 2% antibiotic/antimycotic. At subconfluence, the cells are placed in a defined serum free, lymphocyte medium (AIM-V; Gibco) for 24-48 hours prior to initiating the experimental protocol.
The standard test procedure is initiated by addition of the test compound, ^3H thymidine and serum or a specific growth factor to the serum deprived synchronized cells. Growth factor and serum stimulations are optimized for each cell type. The test compounds are added to each well at 50 fold dilution (20 μL/well) and the plates are incubated for 24-36 hours at 37° C. in 5% CO2 atmosphere. Test compounds are dissolved in 50% ethanol and assayed at 1, 10, and 100 μM. As a control, RG 50872 (Bilder, G. A.; et al., Am. J. Cell Physiol., 1991; 260: C721) is routinely assayed under the conditions of each cell preparation at a concentration of 5 μM.
At the completion of the experiment, the plates are placed on ice, washed three times with ice cold PBS and incubated in ice cold 10% trichloroacetic acid (TCA) for 30 minutes to remove acid soluble proteins. Each solution is transferred to a scintillation vial containing 0.4N HCl (500 μL/vial to neutralize NaOH) and each well is rinsed two times with water […].
Data is quantitated by subjecting the vials to a scintillation counter, in triplicate, for both control and experimental samples. Control (100%) data is obtained from maximally stimulated cells, as the result of growth factor or serum stimulation. Experimental data is obtained from cells maximally stimulated with growth factor or serum and treated with a test compound. (The platelet-derived growth factor used in the assay was human recombinant PDGF-AB purchased from Upstate Biotechnology Inc., Lake Placid, N.Y.). Data is expressed as a percent of control from which IC50s are determined.

[2] = Cytotoxicity, commercial modification of the MTT assay; format: cell-based, porcine; design: dose or concentration left out as unconfirmed; settings: pig
Protocol: To distinguish cytotoxicity from the ability of a compound to prevent proliferation, the test compounds were examined using a commercial modification of the MTT assay. Briefly, cells were grown in 24 well plates to 70-80% confluency. The cells were serum deprived for 24-48 hours prior to initiation of the experimental protocol. To insure that the MTT assay monitored toxicity rather than proliferation, the cells were incubated with […] test compound in fresh medium without serum for 24 hours at 37° C. in a humidified CO2 incubator. Upon completion of the compound treatment, MTT indicator dye was added for 4 hours a 37° C. Cells were then solubilized and aliquots from each will were transferred to a 96-well plate for analysis. Absorbance at 570 nm wavelength with a reference wavelength of 630 nm was recorded using an ELISA plate reader. Results are reported as percent viable using no drug (100% viable) and pre-solubilization (0% viable) standards.

[3] = serum-stimulated, serum deprived synchronized cells, read-out: Porcine Smooth Muscle Cell Antiproliferation IC50 or % Inhibition at x Concentration, Serum
[4] = stimulated with human recombinant PDGF-AB, read-out: Porcine Smooth Muscle Cell Antiproliferation IC50 or % Inhibition at x Concentration, PDGF
[5] = Sus scrofa, serum-stimulated, serum deprived synchronized cells, read-out: Porcine Smooth Muscle Cell Antiproliferation IC50 or % Inhibition at x Concentration, Serum
[6] = Sus scrofa, stimulated with human recombinant PDGF-AB, read-out: Porcine Smooth Muscle Cell Antiproliferation IC50 or % Inhibition at x Concentration, PDGF

Row | Compound | IC50 [1, 3] [nM] | IC50 [1, 4] [nM] | IC50 [1, 5] [nM] | IC50 [1, 6] [nM] | viability at 24 h [2] [%] | melting point [°C]
1 | COc1ccc(C=Cc2nc3cc(C(=O)c4ccccc4)ccc3[nH]2)cc1OC [Example 3, {2-[2-(3,4-Dimethoxyphenyl)-vinyl]-1H-benzoinmidazol-5-yl}-phenyl-methanone] | 7600 | 324 to 801 |  |  |  | 
2 | COc1ccc(/C=C/c2nc3cc([N+](=O)[O-])ccc3[nH]2)cc1OC [Example 7, (E)-2-[2-(3,4-Dimethoxyphenyl)-vinyl]-5-nitro-1H-benzoimidazole] |  |  | 567 to 1900 | 1490 | 100 | 223 to 225
3 | COc1ccc(C=Cc2nc3c(OC)c(C)c(C)c(OC)c3[nH]2)cc1OC [Example 4, 2-[2-(3,4-Dimethoxyphenyl)-vinyl]-4,7-dimethoxy-5,6-dimethyl-1H-benzoimidazole] |  |  | 1280 | 1500 | 100 | 116 to 119
4 | COc1ccc(/C=C/c2nc3cc(C(=O)O)ccc3[nH]2)cc1OC [Example 6, (E)-2-[2-(3,4-Dimethoxyphenyl)-vinyl]-1H-benzoimidazole-5-carboxylic acid] |  |  | 2260 | 7490 | 100 | 
5 | COC(=O)c1ccc2[nH]c(/C=C/c3ccc(OC)c(OC)c3)nc2c1 [Example 5, (E)-2-[2-(3,4-Dimethoxyphenyl)-vinyl]-1H-benzoimidazole-5-carboxylic acid methyl ester] |  |  | 1200 | 6120 | 100 | 185 to 188
6 | COC(=O)c1ccc(Cn2c(C=Cc3ccc(OC)c(OC)c3)nc3c(OC)c(C)c(C)c(OC)c32)cc1 [Example 8, 4-{2-[2-(3,4-Dimethoxyphenyl)-vinyl]-4,7-dimethoxy-5,6-dimethyl-benzoimidazol-1-ylmethyl}-benzoic acid methyl ester] |  |  | 915 to 10200 | 622 | 80 | 
7 | COc1ccc2[nH]c(C=Cc3ccc(OC)c(OC)c3)nc2c1 (as salt: hydrochloride) (hydrate or solvate) [Example 2, 2-[2-(3,4-Dimethoxyphenyl)-vinyl]-5-methoxy-1H-benzoimidazole] |  |  |  |  |  | 246 to 249
8 | O=[N+]([O-])c1ccc2[nH]c(/C=C/c3ccoc3)nc2c1 [Example 11, (E)-2-(2-Furan-3-yl-vinyl)-5-nitro-1H-benzoimidazole] |  |  |  |  |  | 230 to 233
9 | COC(=O)c1ccc(Cn2c(C=Cc3ccc(OC)c(OC)c3)nc3c(OC)c(C)c(C)c(OC)c32)cc1 (hydrate or solvate) [Example 8, 4-{2-[2-(3,4-Dimethoxyphenyl)-vinyl]-4,7-dimethoxy-5,6-dimethyl-benzoimidazol-1-ylmethyl}-benzoic acid methyl ester] |  |  |  |  |  | 111 to 114
10 | O=[N+]([O-])c1ccc2[nH]c(/C=C/c3ccncc3)nc2c1 [Example 10, (E)-5-Nitro2-(2-pyridin-4-yl-vinyl)-1H-benzoimidazole] |  |  | 8360 | 620 | 45 | 
11 | COc1ccc(C=Cc2nc3c([nH]2)C(=O)C(C)=C(C)C3=O)cc1OC [Example 9, 2-[2-(3,4-Dimethoxyphenyl)-vinyl]-5,6-dimethyl-1-benzoimidazol-4,7-dione] | 14500 | 858 |  |  |  | 
12 | COc1ccc(/C=C/c2nc3ccccc3[nH]2)cc1OC [Example 1, (E)-2-[2-(3,4-Dimethoxyphenyl)-vinyl]-1H-benzoimidazole] |  |  | 5910 | 4100 | 100 | 
13 | COc1ccc2[nH]c(C=Cc3ccc(OC)c(OC)c3)nc2c1 [Example 2, 2-[2-(3,4-Dimethoxyphenyl)-vinyl]-5-methoxy-1H-benzoimidazole] |  |  | 11400 | 3480 | 100 | 
